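Exposure lasted 48 hours, with cells grown in 96-well plates and compounds tested at five concentrations. GI50: concentration for 50% inhibition of growth.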 Calls of active or inactive are those of the source. Cut-off read from the data, not from the text of the source: active = GI50 up to about 1.1 µM and inactive = higher.
Experiments:
Assay in all cases: NCI anticancer screen, dose series, 48 h
[1] = test system: OVCAR-5
[2] = test system: NCI-H23
[3] = test system: SNB-19
[4] = test system: SNB-75
[5] = test system: OVCAR-4
[6] = test system: SK-MEL-28
[7] = test system: SF-268
[8] = test system: U-251
[9] = test system: K562
[10] = test system: A498
[11] = test system: HCT-15
[12] = test system: UO-31
[13] = test system: ACHN
[14] = test system: SF-295
[15] = test system: HOP-62
[16] = test system: NCI-H460
[17] = test system: KM12

Row | Compound | GI50 [1] | GI50 [2] | GI50 [3] | GI50 [4] | GI50 [5] | GI50 [6] | GI50 [7] | GI50 [8] | GI50 [9] | GI50 [10] | GI50 [11] [µM] | GI50 [12] | GI50 [13] | GI50 [14] | GI50 [15] | GI50 [16] | GI50 [17]
1 | Cn1c2c(c3ccccc31)CCN(CCCCN1CCc3c(n(C)c4ccccc34)C1=O)C2 | > 100 µM (inactive) | > 100 µM (inactive) | > 100 µM (inactive) | 88.1 µM (inactive) | 36.7 µM (inactive) | > 100 µM (inactive) | > 100 µM (inactive) | > 100 µM (inactive) | > 100 µM (inactive) | > 100 µM (inactive) | > 100 | > 100 µM (inactive) | > 100 µM (inactive) | > 100 µM (inactive) | > 100 µM (inactive) | > 100 µM (inactive) | –
2 | C=C1CC2OC2(C(=O)O[C@H]2CCC3[C@@H]4CCC5=CC(=O)CC[C@]5(C)C4CC[C@@]32C)C1=O (stereo not given in full) | 19.6 µM (inactive) | 9.53 µM (inactive) | 18.7 µM (inactive) | 16.9 µM (inactive) | 6.34 µM (inactive) | 8.87 µM (inactive) | 8.41 µM (inactive) | 8.97 µM (inactive) | 1.78 µM (inactive) | 13.6 µM (inactive) | 3.68 | 8.38 µM (inactive) | 8.09 µM (inactive) | 19.1 µM (inactive) | 21.4 µM (inactive) | 11 µM (inactive) | 12.6 µM (inactive)
3 | CC(C)=C1CCC(CN2CCCC2)C1=O (stereo not given) | 94.6 µM (inactive) | > 100 µM (inactive) | > 100 µM (inactive) | 55.2 µM (inactive) | 17.1 µM (inactive) | 26.7 µM (inactive) | 33.8 µM (inactive) | – | 21.8 µM (inactive) | > 100 µM (inactive) | 18.5 | 20.8 µM (inactive) | 18.6 µM (inactive) | > 100 µM (inactive) | > 100 µM (inactive) | 58.7 µM (inactive) | 30.2 µM (inactive)
4 | Cc1cn(C2CC(O)C(CO)O2)c(=O)n2nnnc12 (stereo not given) | > 100 µM (inactive) | > 100 µM (inactive) | > 100 µM (inactive) | > 100 µM (inactive) | > 100 µM (inactive) | > 100 µM (inactive) | > 100 µM (inactive) | > 100 µM (inactive) | > 100 µM (inactive) | > 100 µM (inactive) | > 100 | > 100 µM (inactive) | – | > 100 µM (inactive) | > 100 µM (inactive) | > 100 µM (inactive) | > 100 µM (inactive)
5 | CC(C)(C)N1CC2(CCCCC2)C1=O | > 100 µM (inactive) | > 100 µM (inactive) | > 100 µM (inactive) | > 100 µM (inactive) | > 100 µM (inactive) | > 100 µM (inactive) | 99.1 µM (inactive) | > 100 µM (inactive) | > 100 µM (inactive) | > 100 µM (inactive) | > 100 | > 100 µM (inactive) | > 100 µM (inactive) | > 100 µM (inactive) | > 100 µM (inactive) | > 100 µM (inactive) | > 100 µM (inactive)
6 | CN1CCN2c3ccccc3CC(C#N)(C#N)C2C1 (stereo not given) | > 100 µM (inactive) | > 100 µM (inactive) | > 100 µM (inactive) | > 100 µM (inactive) | > 100 µM (inactive) | > 100 µM (inactive) | > 100 µM (inactive) | > 100 µM (inactive) | > 100 µM (inactive) | > 100 µM (inactive) | > 100 | > 100 µM (inactive) | > 100 µM (inactive) | > 100 µM (inactive) | – | > 100 µM (inactive) | > 100 µM (inactive)
7 | CC12CC(Sc3ccccc3N1)c1ccccc1O2 (stereo not given) | 19 µM (inactive) | 15.7 µM (inactive) | 15.2 µM (inactive) | 28.2 µM (inactive) | 17 µM (inactive) | 16.7 µM (inactive) | 16.1 µM (inactive) | 13.2 µM (inactive) | 14.3 µM (inactive) | 18.5 µM (inactive) | 15.6 | 14.1 µM (inactive) | 16.9 µM (inactive) | 16 µM (inactive) | 19.6 µM (inactive) | 16.6 µM (inactive) | 15.3 µM (inactive)
